Assay results taken from patent US20050239758A1, “Hormone treatment of multiple sclerosis” (priority 2004, published 2005).

B1: myelin basic protein (protein, UniProt P02686 1-304, looked up)
Myelin basic protein: MGNHAGKRELNAEKASTNSETNRGESEKKRNLGELSRTTSEDNEVFGEADANQNNGTSSQDTAVTDSKRTADPKNAWQDAHPADPGSRPHLIRLFSRDAPGREDNTFKDRPSESDELQTIQEDSAATSESLDVMASQKRPSQRHGSKYLATASTMDHARHGFLPRHRDTGILDSIGRFFGGDRGAPKRGSGKDSHHPARTAHYGSLPQKSHGRTQDENPVVHFFKNIVTPRTPPPSQGKGRGLSLSRFSWGAEGQRPGFGYGGRASDYKSAHKGFKGVDAQGTLSKIFKLGGRDSRSGSPMARR

Assays:
[1] = test system: multiple sclerosis symptoms; assay: Clinical case: daily sublingual dilute progesterone in a patient with multiple sclerosis; type: in vivo, human
Description: An adult human presented with a diagnosis of multiple sclerosis (MS) from a group of neurologists specializing in MS. They had confirmed the diagnosis with magnetic resonance imaging (MRI) scans showing demylination of major nerves. They were evaluated for hormone allergy therapy by assessing their anti-hormone antibodies and found to have elevated levels of anti-progesterone IgG and IgM antibodies. They then received progesterone 1:10 sublingual treatment, daily. Within a month of their initial diagnosis, they rated their symptoms at a 10 on a scale of 1-10, with 10 representing the worst symptoms experienced. A year after diagnosis, but before beginning low dosage hormone therapy, they rated their symptoms at a 5. They then began receiving daily sublingual progesterone (1:10) treatment. They reported an immediate reduction of their symptoms to a 3 or 4. After over a year of therapy, they reported their symptoms to be generally about a 2 with days where they have been a 0 or 1. On one occasion, the subject ran out of drops and, therefore, temporarily discontinued therapy.

serum anti-estrogen IgE = assay: Competition ELISA: absorption of serum anti-estrogen IgE with specific and non-specific antigens; type: binding, human; details: for Percent inhibition of serum anti-estrogen IgE after absorption: absorption with 250 μg/mL antigen, NS = non-significant; for Inhibition of IgE anti-estrogen binding: antigen in liquid phase, range over the samples; for Absorption of serum IgE antibodies by antigen added to the liquid phase: competition ELISA, result in words
Description: (§1) Enzyme-linked immunosorbent assay (ELISA) was used for testing antibodies against estrogen and progesterone in the sera of patients with premenstrual asthma and with control subjects. Different rows of microtiter plates (Costar) were coated either with 100 μl of BSA concentration of 10 μg/mL or 100 μl of estrogen-BSA or progesterone-BSA optimal concentration of 10 μg/mL in 0.1 m carbonate-bicarbonate buffer (pH 9.5). Plates were incubated overnight at 4° C. and then washed three times with […] of Tris-buffered saline (TBS) containing 0.05% Tween 20, pH 7.4. […] Plates were washed with PBS-Tween 20 and then 100 μl of control or patient's serum was added to duplicate wells coated either with BSA alone or with estrogen or progesterone bound to BSA. […] Plates were incubated for 2 h (for IgG and IgM) and overnight (for IgE), and then washed four times with PBS-Tween 20. Alkaline-phosphatase-conjugated goat anti-human IgG, IgM or IgE F(ab′)2 fragment at optimal dilution of 1:700 (IgG); 1:500 (IgM) and 1:250 (IgE) was added to corresponding wells. The plates were then incubated for an additional 2 h at room temperature. After washing five times with TBS-Tween buffer, the enzyme reaction was started by adding 100 μl of para-nitrophenylphosphate in 0.1 mL of diethanolamine buffer (1 mg/ml) containing 1 mM MgCl2 and sodium azide, pH 9.8. The reaction was stopped 45 minutes later with 50 μl of 1 N NaOH. The optical density was read at 405 nm (OD405) with a microtiter reader. […] However, this non-specific O.D. was subtracted from wells coated with estrogen or progesterone bound to BSA.
(§2) For this, microtiter plates were coated with hormones and blocked by the addition of 2% BSA in PBST. 100 μl of serum diluent buffer was added to all wells. […] After a 60-minute incubation, 100 μl serum anti-estrogen or anti-progesterone was added to all wells. […] Results were calculated as a percentage of inhibition in antigen-antibody reaction.
(§3) To examine whether antibodies to estrogen or progesterone are specific or cross-reactive, competition ELISA was performed by adding specific and non-specific antigens in liquid phase and examined prevention of serum antibody binding to the antigen in solid phase. […] This cross-reaction between estrogen and progesterone antibodies may be due to structural similarities between these two hormones.

serum anti-estrogen IgG = assay: Competition ELISA: absorption of serum anti-estrogen IgG with specific and non-specific antigens; type: binding, human; details: for Percent inhibition of serum anti-estrogen IgG after absorption: absorption with 250 μg/mL antigen, NS = non-significant; for Inhibition of anti-estrogen binding to estrogen (IgG): antigen in liquid phase, range over the samples; for Absorption of serum IgG antibodies by antigen added to the liquid phase: competition ELISA, result in words
Description: as §1, §2, §3

Row | Molecule | Symptoms on temporary discontinuation of therapy ([1]; ran out of drops, over a period of several days until therapy restarted) | Self-rated symptoms, generally, after over a year of therapy ([1]; scale of 1-10, 10 = worst, progesterone 1:10 sublingual daily, rated 5 before therapy) | Percent inhibition of serum anti-estrogen IgE after absorption (serum anti-estrogen IgE; Sample 1) | Percent inhibition of serum anti-estrogen IgE after absorption (serum anti-estrogen IgE; Sample 2) | Percent inhibition of serum anti-estrogen IgE after absorption (serum anti-estrogen IgE; Sample 3) | Inhibition of IgE anti-estrogen binding (serum anti-estrogen IgE) | Absorption of serum IgE antibodies by antigen added to the liquid phase (serum anti-estrogen IgE) | Percent inhibition of serum anti-estrogen IgG after absorption (serum anti-estrogen IgG; Sample 1) | Percent inhibition of serum anti-estrogen IgG after absorption (serum anti-estrogen IgG; Sample 2) | Percent inhibition of serum anti-estrogen IgG after absorption (serum anti-estrogen IgG; Sample 3) | Inhibition of anti-estrogen binding to estrogen (IgG) (serum anti-estrogen IgG) | Absorption of serum IgG antibodies by antigen added to the liquid phase (serum anti-estrogen IgG)
1 | CC(=O)[C@H]1CC[C@H]2[C@@H]3CCC4=CC(=O)CC[C@]4(C)[C@H]3CC[C@]12C [progesterone] | steadily worsened | ~2 |  |  |  |  |  |  |  |  |  | 
2 | Estrogen-BSA |  |  | (55%) | (54%) | (62%) | 54-62% | significantly absorbed | (67%) | (59%) | (52%) | 52-67% | significantly absorbed
3 | Progesterone-BSA [Pn] |  |  | (37%) | (41&) % | (43%) | 37-43% | significantly absorbed | (52%) | (45%) | (41%) | 41-52% | significantly absorbed
4 | bovine serum albumin [BSA] |  |  |  |  |  |  | did not absorb |  |  |  |  | did not absorb
5 | B1 |  |  |  |  |  |  | did not absorb |  |  |  |  | did not absorb
